Data published in PubChem BioAssay AID2060513 (Molecular Pharmacology Branch, DTP, NCI, 2025).

Tested on: 299254-011-R-J1-PDC complex spheroids viability
Test: Anticancer human tumor 299254-011-R-J1-PDC patient-derived melanoma cell line growth inhibition [GQUAD]
Settings: for IC50: curve of first compound; for viability, T/C: stronger effect = lower value
Summary of the method: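 Tumor cells were grown as complex spheroids with HUVEC endothelial cells and mesenchymal stem cells as stroma. G-quadruplex stabilizers were combined with targeted agents over half-log dilutions from near the clinical Cmax, or from 10 microM.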

[1] = second compound 0.0316 µM, first compound 0.0316 µM
[2] = second compound 0.0316 µM, first compound 0.1 µM
[3] = second compound 0.0316 µM, first compound 0.316 µM
[4] = second compound 0.0316 µM, first compound 1 µM
[5] = second compound 0.0316 µM, first compound 3.16 µM
[6] = second compound 0.0316 µM, first compound 10 µM
[7] = second compound 0.1 µM, first compound 0.0316 µM
[8] = second compound 0.1 µM, first compound 0.1 µM
[9] = second compound 0.1 µM, first compound 0.316 µM
[10] = second compound 0.1 µM, first compound 1 µM
[11] = second compound 0.1 µM, first compound 3.16 µM
[12] = second compound 0.1 µM, first compound 10 µM
[13] = second compound 0.316 µM, first compound 0.0316 µM
[14] = second compound 0.316 µM, first compound 0.1 µM
[15] = second compound 0.316 µM, first compound 0.316 µM
[16] = second compound 0.316 µM, first compound 1 µM
[17] = second compound 0.316 µM, first compound 3.16 µM
[18] = second compound 0.316 µM, first compound 10 µM
[19] = second compound 1 µM, first compound 0.0316 µM
[20] = second compound 1 µM, first compound 0.1 µM
[21] = second compound 1 µM, first compound 0.316 µM
[22] = second compound 1 µM, first compound 1 µM
[23] = second compound 1 µM, first compound 3.16 µM
[24] = second compound 1 µM, first compound 10 µM
[25] = second compound 3.16 µM, first compound 0.0316 µM
[26] = second compound 3.16 µM, first compound 0.1 µM
[27] = second compound 3.16 µM, first compound 0.316 µM
[28] = second compound 3.16 µM, first compound 1 µM
[29] = second compound 3.16 µM, first compound 3.16 µM
[30] = second compound 3.16 µM, first compound 10 µM
[31] = second compound 10 µM, first compound 0.0316 µM
[32] = second compound 10 µM, first compound 0.1 µM
[33] = second compound 10 µM, first compound 0.316 µM
[34] = second compound 10 µM, first compound 1 µM
[35] = second compound 10 µM, first compound 3.16 µM
[36] = second compound 10 µM, first compound 10 µM
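Further: spheroids exposed to the agents for seven days before readout.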
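Wherever viability, T/C is given: percent viability relative to DMSO vehicle control wells = 100%.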

With `COc1ncnc(C2CC2)c1-c1ncc2cnn(Cc3ccc(-c4nc(C(F)(F)F)cn4C(C)C)cc3)c2n1` + Cc1cnc(CNC(=O)c2c(=O)c3ccc(N4CCCN(C)CC4)nc3n3c2sc2ccccc23)cn1 the IC50 (second compound 0.0316 µM) was over 10 µM, the IC50 (second compound 0.1 µM) was over 10 µM and the IC50 (second compound 0.316 µM) was over 10 µM. It also gave an IC50 (second compound 1 µM) of over 10 µM, an IC50 (second compound 3.16 µM) of over 10 µM and an IC50 (second compound 10 µM) of 3.44 µM. The viability, T/C [1] was 92.3%, the viability, T/C [2] was 98.2% and the viability, T/C [3] was 84.8%. It also gave a viability, T/C [4] of 88.6%, a viability, T/C [5] of 110% and a viability, T/C [6] of 126%. The viability, T/C [7] was 113%, the viability, T/C [8] was 97.9% and the viability, T/C [9] was 81.5%. For the same compound, the viability, T/C [10] was 97.8%, the viability, T/C [11] was 91.9% and the viability, T/C [12] was 108%. For the same compound, the viability, T/C [13] was 87.3%, the viability, T/C [14] was 88.9% and the viability, T/C [15] was 120%. For the same compound, the viability, T/C [16] was 101%, the viability, T/C [17] was 93.2% and the viability, T/C [18] was 97.8%. It also gave a viability, T/C [19] of 68.7%, a viability, T/C [20] of 102% and a viability, T/C [21] of 90.1%. The viability, T/C [22] was 88.1%, the viability, T/C [23] was 102% and the viability, T/C [24] was 76.8%. It also gave a viability, T/C [25] of 87.4%, a viability, T/C [26] of 69.8% and a viability, T/C [27] of 76.4%. The viability, T/C [28] was 70.9%, the viability, T/C [29] was 77.3% and the viability, T/C [30] was 79%. For the same compound, the viability, T/C [31] was 38.5%, the viability, T/C [32] was 24.7% and the viability, T/C [33] was 68%. The viability, T/C [34] was 77.7%, the viability, T/C [35] was 63.6% and the viability, T/C [36] was 0.43%.
`COc1cc(C2c3cc4c(cc3C(OC3OC5COC(C)OC5C(O)C3O)C3COC(=O)C23)OCO4)cc(OC)c1O` (stereo unspecified) + Cc1[nH]c2ccc(F)cc2c1-c1nc2c3cccnc3c3ncccc3c2[nH]1 gave an IC50 (second compound 0.0316 µM) of over 10 µM, an IC50 (second compound 0.1 µM) of over 10 µM and an IC50 (second compound 0.316 µM) of over 10 µM. For the same compound, the IC50 (second compound 1 µM) was over 10 µM, the IC50 (second compound 3.16 µM) was over 10 µM and the IC50 (second compound 10 µM) was over 10 µM. For the same compound, the viability, T/C [1] was 81.2%, the viability, T/C [2] was 79.1% and the viability, T/C [3] was 108%. It also gave a viability, T/C [4] of 85%, a viability, T/C [5] of 94.5% and a viability, T/C [6] of 76.5%. It also gave a viability, T/C [7] of 100%, a viability, T/C [8] of 97.5% and a viability, T/C [9] of 81.2%. For the same compound, the viability, T/C [10] was 76.5%, the viability, T/C [11] was 99.2% and the viability, T/C [12] was 80.1%. The viability, T/C [13] was 100%, the viability, T/C [14] was 77.3% and the viability, T/C [15] was 82.5%. For the same compound, the viability, T/C [16] was 86.9%, the viability, T/C [17] was 84.3% and the viability, T/C [18] was 70.5%. The viability, T/C [19] was 101%, the viability, T/C [20] was 86% and the viability, T/C [21] was 106%. The viability, T/C [22] was 87.1%, the viability, T/C [23] was 96.7% and the viability, T/C [24] was 72.2%. It also gave a viability, T/C [25] of 99.9%, a viability, T/C [26] of 84.9% and a viability, T/C [27] of 89.5%. For the same compound, the viability, T/C [28] was 89.4%, the viability, T/C [29] was 89.5% and the viability, T/C [30] was 95%. It also gave a viability, T/C [31] of 89.7%, a viability, T/C [32] of 83% and a viability, T/C [33] of 95.3%. For the same compound, the viability, T/C [34] was 86.1%, the viability, T/C [35] was 96.2% and the viability, T/C [36] was 56.5%.
`C#Cc1c(F)ccc2cc(O)cc(-c3ncc4c(N5CC6CCC(C5)N6)nc(OCC56CCCN5CC(F)C6)nc4c3F)c12` (stereo unspecified) + Cc1[nH]c2ccc(F)cc2c1-c1nc2c3cccnc3c3ncccc3c2[nH]1 showed an IC50 (second compound 0.0316 µM) of over 10 µM, an IC50 (second compound 0.1 µM) of over 10 µM and an IC50 (second compound 0.316 µM) of over 10 µM. For the same compound, the IC50 (second compound 1 µM) was over 10 µM, the IC50 (second compound 3.16 µM) was over 10 µM and the IC50 (second compound 10 µM) was over 10 µM. It also gave a viability, T/C [1] of 109%, a viability, T/C [2] of 102% and a viability, T/C [3] of 87.9%. For the same compound, the viability, T/C [4] was 102%, the viability, T/C [5] was 90.8% and the viability, T/C [6] was 72.5%. The viability, T/C [7] was 83.1%, the viability, T/C [8] was 103% and the viability, T/C [9] was 103%. For the same compound, the viability, T/C [10] was 100%, the viability, T/C [11] was 103% and the viability, T/C [12] was 72.9%. For the same compound, the viability, T/C [13] was 89.4%, the viability, T/C [14] was 102% and the viability, T/C [15] was 88.8%. For the same compound, the viability, T/C [16] was 86.6%, the viability, T/C [17] was 111% and the viability, T/C [18] was 75.7%. The viability, T/C [19] was 129%, the viability, T/C [20] was 95.2% and the viability, T/C [21] was 116%. It also gave a viability, T/C [22] of 104%, a viability, T/C [23] of 86.6% and a viability, T/C [24] of 80.8%. For the same compound, the viability, T/C [25] was 102%, the viability, T/C [26] was 112% and the viability, T/C [27] was 97.2%. The viability, T/C [28] was 88.9%, the viability, T/C [29] was 114% and the viability, T/C [30] was 91.7%. It also gave a viability, T/C [31] of 87.2%, a viability, T/C [32] of 100% and a viability, T/C [33] of 98.4%. It also gave a viability, T/C [34] of 99.1%, a viability, T/C [35] of 105% and a viability, T/C [36] of 95.6%.
